For twelve molecules, GI50 and TGI results are on record in PubChem BioAssay (NCI).

Several values for one entry are separate records, joined by “and”; a condition that tells them apart may be missing. Identical values can stand only once.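 Five compound concentrations were applied to cells in 96-well plates for 48 hours; endpoints were derived by simple linear interpolation of the resulting dose-response curve. GI50 marks 50% less growth. Definition used: TGI = concentration required for complete inhibition of growth.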 A value given as a limit tells only on which side of the number the result lay.

Among the test systems are HS 578T breast; BT-549 breast; MDA-MB-231 breast; NCI/ADR-RES ovarian; MCF7 breast; T-47D breast.
What all share (test): NCI tumour cell line growth inhibition, 48 h

On to `O=P([O-])(O)OP(=O)([O-])O.[NH-][C@@H]1CCCC[C@H]1[NH-].[Pt+4]`, for which the GI50 in the assay with HS 578T breast was > 100 µM and 56.5 µM; in the assay on BT-549 breast it was > 100 µM and 30.5 µM; in the assay on MDA-MB-231 breast it was over 100 µM; in the assay with NCI/ADR-RES ovarian it was 38.4 µM and 5.2 µM; in the assay with MCF7 breast, 7.78 µM and 2.93 µM; in the assay with T-47D breast, 18.4 µM and 4.82 µM. For the same molecule, the TGI is over 100 µM in the assay with HS 578T breast; over 100 µM with BT-549 breast; over 100 µM in the assay on MDA-MB-231 breast; over 100 µM in the assay with NCI/ADR-RES ovarian; over 100 µM in the assay on MCF7 breast; > 100 µM and 39.5 µM in the assay on T-47D breast.

Turning to `CCCN1CCN(c2ccc3nc(-c4ccc5nc(-c6cc(OC)ccc6OC)[nH]c5c4)[nH]c3c2)CC1`, the GI50 in the assay with HS 578T breast was 20.1 µM; with BT-549 breast, 15.7 µM; in the assay on MDA-MB-231 breast, 1.74 µM; in the assay with NCI/ADR-RES ovarian, 1.99 µM; in the assay on MCF7 breast, 1.8 µM; with T-47D breast, 21.6 µM. Further, the TGI with HS 578T breast amounted to 55.6 µM; in the assay with BT-549 breast it was 36.1 µM; with MDA-MB-231 breast, 3.27 µM; in the assay with NCI/ADR-RES ovarian it was 4.29 µM; in the assay with MCF7 breast it was 3.82 µM; in the assay with T-47D breast, 54.1 µM.

As for `NC(=O)c1ccc2c(-c3ccnc(NCCCO)n3)c(-c3ccc(F)cc3)nn2c1`, the GI50 in the assay on HS 578T breast was over 25 µM; with BT-549 breast, over 25 µM; in the assay with MDA-MB-231 breast it was over 25 µM; in the assay on NCI/ADR-RES ovarian it was over 25 µM; in the assay on MCF7 breast it was over 16.9 µM; with T-47D breast, over 25 µM. The TGI in the assay with HS 578T breast, in the assay on BT-549 breast, in the assay on MDA-MB-231 breast, in the assay on NCI/ADR-RES ovarian, with MCF7 breast and with T-47D breast was over 25 µM throughout.

With `COC(=O)c1c2c(c(C)[n+]([O-])c1C)C(=O)C=C(NCc1ccc(OC)cc1)C2=O`, the GI50 with HS 578T breast is 5.32 µM; with BT-549 breast it was 4.29 µM; in the assay with MDA-MB-231 breast it was 0.959 µM; in the assay on NCI/ADR-RES ovarian it was 1.03 µM; in the assay on MCF7 breast it was 0.72 µM; in the assay with T-47D breast, 0.994 µM. In addition, the TGI with HS 578T breast turned out to be 21.6 µM; in the assay with BT-549 breast, 15.8 µM; in the assay on MDA-MB-231 breast it was 5.41 µM; with NCI/ADR-RES ovarian, 4.85 µM; with MCF7 breast, 2.14 µM; in the assay on T-47D breast it was 4.18 µM.

For `O=CN1N=C(c2ccc(Cl)cc2)CC1c1cccc(Nc2ccnc3cc(Cl)ccc23)c1` (stereo not drawn), the GI50 with HS 578T breast was 3.23 µM; with BT-549 breast, 1.78 µM; with MDA-MB-231 breast, 2.74 µM; in the assay with NCI/ADR-RES ovarian, 0.784 µM; in the assay on MCF7 breast it was 0.866 µM; with T-47D breast, 0.817 µM. The TGI is over 100 µM with HS 578T breast; 15.4 µM in the assay with BT-549 breast; 39.2 µM in the assay on MDA-MB-231 breast; over 100 µM with NCI/ADR-RES ovarian; 16 µM with MCF7 breast; 17.7 µM in the assay with T-47D breast.

With `O=C(CC12CC3CC(CC(C3)C1)C2)NCCOCCOCCOCCNC(=O)c1cc2c(o1)C(=O)c1ccccc1C2=O`, the GI50 in the assay on HS 578T breast was 1.99 µM; in the assay on BT-549 breast it was 1.33 µM; with MDA-MB-231 breast it was 2.43 µM; with NCI/ADR-RES ovarian, 2.47 µM; in the assay on MCF7 breast it was 0.808 µM; with T-47D breast, 1.74 µM. Besides, the TGI was 6.59 µM in the assay with HS 578T breast; 2.68 µM in the assay with BT-549 breast; 9.81 µM with MDA-MB-231 breast; 7.65 µM in the assay with NCI/ADR-RES ovarian; 2.73 µM in the assay on MCF7 breast; 5.86 µM in the assay with T-47D breast.

As to `C=CCN(CC=C)C(=O)c1cc(C)nc2c1c(=O)n(-c1ccccc1)c(=O)n2CC(O)CN1CCN(c2ncccn2)CC1` (stereo not drawn), the GI50 is over 100 µM in the assay on HS 578T breast; over 100 µM with MDA-MB-231 breast; over 100 µM in the assay on NCI/ADR-RES ovarian; 33.3 µM with MCF7 breast; over 100 µM in the assay on T-47D breast. In addition, the TGI in the assay on HS 578T breast, with MDA-MB-231 breast, with NCI/ADR-RES ovarian, in the assay on MCF7 breast and with T-47D breast was over 100 µM in each case.

Turning to `CC1=C2C[C@H]3[C@@H](CC=C4C[C@@H](O)CC[C@@]43C)[C@@H]2CC[C@]12O[C@@H]1C[C@H](C)CN[C@H]1[C@H]2C`, the GI50 is > 50 µM and 35 µM in the assay with HS 578T breast; 31 µM and 52.1 µM in the assay on BT-549 breast; 17.8 µM and 23.7 µM in the assay with MDA-MB-231 breast; 38.5 µM and 20.3 µM with NCI/ADR-RES ovarian; 29 µM and 23.7 µM with MCF7 breast; 13.3 µM and 16.7 µM with T-47D breast. Moreover, the TGI in the assay on HS 578T breast was over 100 µM; in the assay on BT-549 breast, 50 µM and > 100 µM; with MDA-MB-231 breast, 42.6 µM and 49.7 µM; in the assay on NCI/ADR-RES ovarian it was 50 µM and 47.5 µM; in the assay with MCF7 breast, 50 µM and 55.9 µM; with T-47D breast, 32.8 µM and 34.9 µM.

For `COc1cc2c(Oc3ccc4[nH]c(C)cc4c3F)ccnc2cc1OCC1(N)CC1`, the GI50 with HS 578T breast was 0.759 µM; in the assay with BT-549 breast it was 1.3 µM; in the assay with MDA-MB-231 breast, 1.8 µM; in the assay on NCI/ADR-RES ovarian, 2.31 µM; in the assay on MCF7 breast it was 0.484 µM; with T-47D breast it was 3.64 µM. Moreover, the TGI in the assay on HS 578T breast is 3.29 µM; with BT-549 breast it was 3.96 µM; in the assay with MDA-MB-231 breast, 4.61 µM; in the assay with NCI/ADR-RES ovarian, over 100 µM; in the assay with MCF7 breast it was 24.6 µM; in the assay with T-47D breast it was 28.5 µM.

As to `O=C([O][Hg][CH2]C1COCC([CH2][Hg][O]C(=O)c2ccccc2)O1)c1ccccc1` (stereo not drawn), the GI50 in the assay with HS 578T breast is 19.8 µM; with BT-549 breast it was 17.3 µM; in the assay with MDA-MB-231 breast it was 19.4 µM; with NCI/ADR-RES ovarian, 21.1 µM; in the assay with MCF7 breast it was 1.25 µM. Moreover, the TGI in the assay on HS 578T breast is 65.8 µM; in the assay on BT-549 breast, 31.2 µM; in the assay with MDA-MB-231 breast, 45.6 µM; with NCI/ADR-RES ovarian, 61.6 µM; in the assay with MCF7 breast it was 14.2 µM.

Regarding `Cc1cc(N2CCCC2)nc(NC2CCCC(Nc3ccnc4cc(Cl)ccc34)C2)n1` (stereo not drawn), the GI50 is 2 µM in the assay on HS 578T breast; 1.8 µM with BT-549 breast; 1.78 µM with NCI/ADR-RES ovarian; 0.563 µM in the assay on MCF7 breast; 1.71 µM with T-47D breast. For the same molecule, the TGI in the assay on HS 578T breast was found to be 4.72 µM; with BT-549 breast, 3.35 µM; in the assay on NCI/ADR-RES ovarian it was 5.69 µM; in the assay with MCF7 breast, 2.63 µM; in the assay with T-47D breast, 4.83 µM.

Consider `CC1(C)CC(n2cnc(-c3ccc(F)cc3)c2-c2ccnc(N)n2)CC(C)(C)N1`, for which the GI50 in the assay with HS 578T breast is over 25 µM; in the assay with BT-549 breast it was over 25 µM; in the assay with MDA-MB-231 breast, over 22.7 µM; in the assay on NCI/ADR-RES ovarian, over 25 µM; in the assay on MCF7 breast, 6.01 µM; in the assay on T-47D breast, 24.3 µM. For the same molecule, the TGI in the assay with HS 578T breast was over 25 µM; in the assay on BT-549 breast it was over 25 µM; in the assay with MDA-MB-231 breast it was over 25 µM; in the assay with NCI/ADR-RES ovarian, over 25 µM; with MCF7 breast, over 19.6 µM; in the assay on T-47D breast, over 25 µM.
